Data taken from patent US20250288567A1, “PHARMACEUTICAL COMPOSITION FOR TREATING PRESBYOPIA” (Sight Health Hong Kong Biotechnology Co., Limited, priority 2024, published 2025).
Several values for one entry are separate records, joined by “and”; a condition that tells them apart may be missing. Identical values can stand only once.

How the values were obtained:
[1] = tested on: patients with astigmatism (UDVA less than 0.8); assay: Uncorrected distance visual acuity (UDVA) of eyes with astigmatism after Huperzine A eye drops; type: in vivo, human; conditions: 2 patients, 4 eyes with astigmatism
Protocol: (§1) A non-randomized clinical case study involving 40 eyes of 20 presbyopia patients with uncorrected distance visual acuity (UDVA) of 0.4-1.0 and uncorrected near visual acuity (UNVA) of less than Jaeger1, aged 33-70 years is conducted. The patients are randomly divided into 3 groups, using eye drops with concentration of Huperzine A ranging from 0.1%-0.3% for clinical trials. Data are collected on changes in visual acuity, including UDVA, UNVA40, UNVA66, pupil diameter changes, and non-contact intraocular pressure, before and 30 minutes after Huperzine A eye drops. The data are grouped according to drug concentration and age and are analyzed. The discomfort symptoms appeared half an hour after using the eye drops are recorded, and the time when the relevant symptoms disappeared is obtained during the telephone interview in the following 3 days. A detailed description of the case study is further illustrated below.
Participants first complete a health declaration questionnaire with assistance from medical staff. They then measure their blood pressure and heart rate before undergoing computer optometry, as well as examinations for best corrected distance visual acuity and uncorrected distance visual acuity. They use the Jaeger score table to assess uncorrected reading visual acuity at 40 cm (UNVA40) and 66 cm (UNVA66) for computer visual acuity. […]

[2] = tested on: presbyopia patients; assay: Visual acuity before and after treatment with Huperzine A, TRAC1 and their combination (three patients); type: in vivo, human; design: scale not given here
Protocol: This hypothesis is tested by using 0.05%-0.3% Huperzine A and 0.05%-0.3% TRAC1. Three patients are treated with each drug, as well as the combination of both drugs.

[3] = tested on: presbyopia patients; assay: Side effects reported by patients after Huperzine A eye drops; conditions: human, in vivo
Protocol: as §1
The duration of these side effects varies from 2 to 5 hours and gradually relieves over time. Additionally, some patients report an increase in tear secretion after using the eye drops.

[4] = tested on: presbyopia patients; assay: Non-randomized clinical case study of Huperzine A eye drops: uncorrected near visual acuity (UNVA40, UNVA66) before and 30 minutes after; type: in vivo, human
Protocol: as §1
The clinical study of the present invention is conducted in March 2022 at a university hospital. Individuals over the age of 30 who feel their near vision has decreased are recruited and voluntarily participate in the test through a long-term open recruitment process. Inclusion criteria include best corrected distance visual acuity of 1.0, 40 cm reading visual acuity (UNVA40) or 66 cm computer visual acuity (UNVA66) lower than the Jaeger score J1, normal intraocular pressure, no history of retinal-related medical conditions, good general health, absence of systemic symptoms, and no rheumatic or systemic immune diseases.
Participants first complete a health declaration questionnaire with assistance from medical staff. They then measure their blood pressure and heart rate before undergoing computer optometry, as well as examinations for best corrected distance visual acuity and uncorrected distance visual acuity. They use the Jaeger score table to assess uncorrected reading visual acuity at 40 cm (UNVA40) and 66 cm (UNVA66) for computer visual acuity. Additionally, they have non-contact intraocular pressure measurements, pupil diameter assessments under room lighting, and a slit lamp examination by an experienced clinical ophthalmologist to rule out ocular diseases. Fundus photography is also performed.
Participants who meet the screening criteria are randomly divided into […]. One drop of 0.1%-0.3% Huperzine A eye drops is administered in each eye. After 30 minutes, the best corrected distance visual acuity, uncorrected distance visual acuity at 40 cm (UNVA40), and 66 cm computer visual acuity (UNVA66) are measured again, along with non-contact intraocular pressure and pupil diameter under room lighting.
The drug used in this present test is Huperzine A at a range of 0.1%-0.3% concentration, using standard ophthalmic dropper bottles, each yielding 40 μL drops and each drop effectively dispenses 0.1%-0.3%.
The collected data are organized so that J1+ is recorded as 0 on the Jaeger scale, J1 as 1, J2 as 2, and so forth.
The patients are grouped by age: 40 years old or below (2 people, 4 eyes), 41-50 years old (9 people, 18 eyes), 51-60 years old (6 people, 12 eyes), 61-70 years old (2 people, 4 eyes), and over 70 years old (1 people, 2 eyes).

[5] = Patient 1, Right eye (OD), Jaeger score, 0.05%-0.3%
[6] = Group 1, 40 years old or below, 2 people 4 eyes
[7] = Group 2, 41-50 years old, 9 people 18 eyes
[8] = Group 3, 51-60 years old, 6 people 12 eyes
[9] = Group 4, 61-70 years old, 2 people 4 eyes
[10] = Group 5, over 70 years old, 1 person 2 eyes
[11] = all patients, 20 patients 40 eyes, 0.1%-0.3% eye drops, 30 minutes after

C/C=C1\[C@H]2C=C(C)C[C@]1(N)c1ccc(=O)[nH]c1C2 [Huperzine A]
UDVA increase after Huperzine A eye drops [1]: 0.2 and 0.1 | Near 40 cm, After treatment ([2]; Patient 1, Left eye (OS)): 3 | Near 40 cm, Improvement ([2]; Patient 1, Left eye (OS)): 2 | Near 66 cm, After treatment ([2]; Patient 1, Left eye (OS)): 2 | Near 66 cm, Improvement ([2]; Patient 1, Left eye (OS)): 2 | Near 40 cm, Improvement ([2]; Patient 1, Right eye (OD)): 3 | Near 66 cm, After treatment ([2]; Patient 1, Right eye (OD)): 2 | Near 66 cm, Improvement ([2]; Patient 1, Right eye (OD)): 2 | Near 40 cm, After treatment [2, 5]: 3 | Near 40 cm, After treatment ([2]; Patient 2, Left eye (OS)): 4 | Near 40 cm, Improvement ([2]; Patient 2, Left eye (OS)): 5 | Near 66 cm, After treatment ([2]; Patient 2, Left eye (OS)): 2 | Near 66 cm, Improvement ([2]; Patient 2, Left eye (OS)): 4 | Near 40 cm, After treatment ([2]; Patient 2, Right eye (OD)): 4 | Near 40 cm, Improvement ([2]; Patient 2, Right eye (OD)): 6 | Near 66 cm, After treatment ([2]; Patient 2, Right eye (OD)): 3 | Near 66 cm, Improvement ([2]; Patient 2, Right eye (OD)): 3 | Near 40 cm, After treatment ([2]; Patient 3, Left eye (OS)): 3 | Near 40 cm, Improvement ([2]; Patient 3, Left eye (OS)): 8 | Near 66 cm, After treatment ([2]; Patient 3, Left eye (OS)): 3 | Near 66 cm, Improvement ([2]; Patient 3, Left eye (OS)): 6 | Near 40 cm, After treatment ([2]; Patient 3, Right eye (OD)): 2 | Near 40 cm, Improvement ([2]; Patient 3, Right eye (OD)): 6 | Near 66 cm, After treatment ([2]; Patient 3, Right eye (OD)): 2 | Near 66 cm, Improvement ([2]; Patient 3, Right eye (OD)): 5 | lacrimation (side effect) [3]: 6% | N40 improved [4, 6]: 2.25 J | N66 improved [4, 6]: 1.50 J | UNVA40 after treatment (Near 40, After) [4, 6]: 1.00 J | UNVA66 after treatment (Near 66, After) [4, 6]: 2.75 J | N40 improved [4, 7]: 3.05 J and 3.06 J | N66 improved [4, 7]: 1.72 J | UNVA40 after treatment (Near 40, After) [4, 7]: 1.89 J | UNVA66 after treatment (Near 66, After) [4, 7]: 1.61 J | N40 improved [4, 8]: 1.92 J | N66 improved [4, 8]: 2.33 J | UNVA40 after treatment (Near 40, After) [4, 8]: 3.75 J | UNVA66 after treatment (Near 66, After) [4, 8]: 3.67 J | N40 improved [4, 9]: 3.75 J | N66 improved [4, 9]: 2.00 J | UNVA40 after treatment (Near 40, After) [4, 9]: 2.25 J | UNVA66 after treatment (Near 66, After) [4, 9]: 3.00 J | N40 improved [4, 10]: 6.00 J | N66 improved [4, 10]: 4.50 J | UNVA40 after treatment (Near 40, After) [4, 10]: 7.00 J | UNVA66 after treatment (Near 66, After) [4, 10]: 4.00 J | N40 improved (average improvement of UNVA40) [4, 11]: 2.85 J | N66 improved (average improvement of UNVA66) [4, 11]: 2.05 J | UNVA66 after treatment (Near 66, After) ([4]; all patients, 20 patients 40 eyes, 0.1%-0.3% eye drops, 30 minutes after, Jaeger score): 2.60 J | UNVA40 after treatment (Near 40, After) ([4]; all patients, 20 patients 40 eyes, 0.1%-0.3% eye drops, 30 minutes after, Jaeger score, J1+ = 0): 2.65 J | effect on near vision, 41-50-year-old group compared with 51-60-year-old group ([4]; human, in vivo): more significant effect on the former group

Nc1c2c(nc3ccccc13)CCCC2 [Tacrine]
Near 40 cm, After treatment ([2]; Patient 1, Left eye (OS)): 3 | Near 40 cm, Improvement ([2]; Patient 1, Left eye (OS)): 2 | Near 66 cm, After treatment ([2]; Patient 1, Left eye (OS)): 2 | Near 66 cm, Improvement ([2]; Patient 1, Left eye (OS)): 2 | Near 40 cm, Improvement ([2]; Patient 1, Right eye (OD)): 3 | Near 66 cm, After treatment ([2]; Patient 1, Right eye (OD)): 2 | Near 66 cm, Improvement ([2]; Patient 1, Right eye (OD)): 2 | Near 40 cm, After treatment [2, 5]: 3 | Near 40 cm, After treatment ([2]; Patient 2, Left eye (OS)): 4 | Near 40 cm, Improvement ([2]; Patient 2, Left eye (OS)): 5 | Near 66 cm, After treatment ([2]; Patient 2, Left eye (OS)): 2 | Near 66 cm, Improvement ([2]; Patient 2, Left eye (OS)): 4 | Near 40 cm, After treatment ([2]; Patient 2, Right eye (OD)): 4 | Near 40 cm, Improvement ([2]; Patient 2, Right eye (OD)): 6 | Near 66 cm, After treatment ([2]; Patient 2, Right eye (OD)): 3 | Near 66 cm, Improvement ([2]; Patient 2, Right eye (OD)): 3 | Near 40 cm, After treatment ([2]; Patient 3, Left eye (OS)): 3 | Near 40 cm, Improvement ([2]; Patient 3, Left eye (OS)): 8 | Near 66 cm, After treatment ([2]; Patient 3, Left eye (OS)): 3 | Near 66 cm, Improvement ([2]; Patient 3, Left eye (OS)): 6 | Near 40 cm, After treatment ([2]; Patient 3, Right eye (OD)): 2 | Near 40 cm, Improvement ([2]; Patient 3, Right eye (OD)): 6 | Near 66 cm, After treatment ([2]; Patient 3, Right eye (OD)): 2 | Near 66 cm, Improvement ([2]; Patient 3, Right eye (OD)): 5
